Laboratory results: US20250186436A1 (4E Therapeutics, Inc., priority 2021, published 2025)
Several values for one entry are separate records, joined by “and”; a condition that tells them apart may be missing. Equal values may be shown once. Read-outs that look alike come from different tables or passages of the source.

What was measured:
[1] = PK study in male Sprague-Dawley rats dosed once per day for five days, PO 10 mg/kg, 0.5% HPMC (Example 7); type: in vivo; conditions: 0.5% HPMC suspension
[2] = PK study in male Sprague-Dawley rats dosed once per day for five days, PO 25 mg/kg, 0.5% HPMC (Example 8); type: in vivo; conditions: 0.5% HPMC suspension
[3] = system: IL-6 evoked grimace in ICR mice; experiment: IL-6 evoked grimace test; type: in vivo; conditions: PO 1 hr prior to IL-6 (4ET-03-053: 10 mg/kg)
Description: Male and female Institute for Cancer Research (ICR) mice were used in these experiments. Mice were bred in house at University of Texas at Dallas and used at between 12 and 24 weeks of age. Mice were habituated to plexiglass boxes of approximately 4×6 inches in size with openable tops. Habituation took place over 2 days with animals exposed to the boxes for at least 30 min. A blinded observer scored baseline grimacing using the method previously described by Mogil and colleagues (Langford D J, et al. “Coding of facial expressions of pain in the laboratory mouse” Nat Methods 7:447-449 (2010)). On test day, mice were given test compounds 1 hr prior to injection of interleukin 6 (human recombinant IL-6, R&D Systems) which was given at a dose of 0.1 ng in saline via an intraplantar injection as described previously (Moy J K, et al. “The MNK-eIF4E Signaling Axis Contributes to Injury-Induced Nociceptive Plasticity and the Development of Chronic Pain” J Neurosci. 37:7481-7499 (2017)). Test compounds were given orally (PO) via a flexible oral gavage canula built for mice. 4ET-03-053 is efficacious in the IL-6 evoked grimace test in mice (PO; 10 mg/kg).
Effect sizes were calculated per mouse by subtracting the baseline grimace score from the sum of the grimace scores for 1 and 3 hr time points.

[4] = system: eIF4E phosphorylation in mouse tissues; experiment: In vivo biochemical assay (Western blot) of eIF4E phosphorylation in mouse tissues; conditions: mice, PO 10 mg/kg
Description: […] Tissues were acutely dissected and immediately frozen. Frozen samples were later bead homogenized with protease and phosphatase inhibitor cocktails present in the homogenization buffer and then protein was quantified by Bradford assay. 20 μg of protein was run per lane on standard SDS-PAGE. Blots were probed with antibodies against p-eIF4E and total-eIF4E and imaged on a BioRad imaging system. […] However, inhibition of phosphorylation of eIF4E in the brain was not observed, as determined by Western blot analysis of brain tissue from the cortex.

[5] = Plasma and brain concentrations, brain to plasma ratio in SD rats 2 hr after single 10 mg/kg PO (Example 4); type: in vivo; conditions: 2 hr post single PO dose 10 mg/kg; for concentration at 2 hr: Sprague-Dawley, po
Description: A brain to plasma ratio of 0.096 (BP=0.096) in SD rats is observed at 2 hr following a single 10 mg/kg dose of 4ET-03-053.

[6] = PK study in male Sprague-Dawley rats dosed once per day for five days, PO 10 mg/kg, 0.5% HPMC (Example 7); type: in vivo; conditions: 0.5% HPMC suspension; remark: listed apart in the source
Description: Example 7. PK study of 4ET-03-053 in male Sprague-Dawley rats dosed once per day for five days (P0; 10 mg/kg; 0.5%0HPMC aqueous suspension)
Table 21 provides plasma and brain concentrations at 24 hr after the last dose of five daily P0 doses of 4ET-03-053.

[7] = individual animals (n = 3), 10 mg/kg
[8] = Sprague-Dawley rats, day five of daily PO 10 mg/kg, individual animals, 10 mg/kg
[9] = Sprague-Dawley rats, day five of daily PO 10 mg/kg, mean (n = 3)
[10] = male Sprague-Dawley rats, single PO 10 mg/kg dose, individual animals, 10 mg/kg
[11] = male Sprague-Dawley rats, single PO 10 mg/kg dose, mean (n = 3)
[12] = male, Sprague-Dawley, rat, in vivo, po, 10 mg/kg, Sprague-Dawley rats, day five of daily PO 10 mg/kg, individual animals
[13] = male, Sprague-Dawley, rat, in vivo, po, 10 mg/kg, Sprague-Dawley rats, day five of daily PO 10 mg/kg, mean (n = 3)
[14] = male, Sprague-Dawley, rat, in vivo, po, 10 mg/kg, male Sprague-Dawley rats, single PO 10 mg/kg dose, individual animals
[15] = male, Sprague-Dawley, rat, in vivo, po, 10 mg/kg, male Sprague-Dawley rats, single PO 10 mg/kg dose, mean (n = 3)

Cc1cc(Nc2cc(N)ncn2)c(=O)n2c1C(=O)NC21CCC2(CC2)CC1 [4ET-03-053, 6″-((6-Aminopyrimidin-4-yl)amino)-8″-methyl-2″H-dispiro[cyclopropane-1,1′-cyclohexane-4′,3″-imidazo[1,5-a]pyridine]-1″,5″-dione]
MRT inf ([1]; male, Sprague-Dawley, rat, in vivo, po, 10 mg/kg, single PO 10 mg/kg dose, mean (n = 3)): 7.43 h
AUC(0-inf) ([1]; male, Sprague-Dawley, rat, in vivo, po, 10 mg/kg, single PO 10 mg/kg, read-out: total systemic exposure (AUCinf)): 272 µg·h/mL
t1/2 ([1]; single PO 10 mg/kg dose, individual animals, 10 mg/kg): 4.83 h and 5.11 h
time to peak plasma concentration ([1]; single PO 10 mg/kg): ≤ 2 h
half-life ([2]; male, Sprague-Dawley, rat, in vivo, po, 25 mg/kg, single PO 25 mg/kg dose, individual animals): 7.03 h
concentration at 24 h ([2]; male, Sprague-Dawley, rat, in vivo, po, 25 mg/kg, single PO 25 mg/kg dose, mean (n = 3), read-out: Clast): 2890 ng/mL
concentration at 24 h ([2]; male, Sprague-Dawley, rat, in vivo, po, 25 mg/kg, single PO 25 mg/kg, at 24 hr, read-out: last measurable concentration): 2890 ng/mL
F ([2]; single PO 25 mg/kg dose, mean (n = 3)): 26.5%
time to peak plasma concentration ([2]; single PO 25 mg/kg): ≤ 2 h
efficacy in the IL-6 evoked grimace test [3]: efficacious
inhibition of phosphorylation of eIF4E in the brain (cortex) [4]: not observed
inhibition of eIF4E phosphorylation in DRGs ([4]; 2 hours post dose): significant inhibition
inhibition of eIF4E phosphorylation in sciatic nerve ([4]; 2 hours post dose): significant inhibition
inhibition of eIF4E phosphorylation in spleen ([4]; 2 hours post dose): significant inhibition
Brain Tissue Homogenate Conc. [5, 7]: 406 ng/mL and 323 ng/mL
Plasma Conc. [5, 7]: 16900 ng/mL and 14400 ng/mL
Kp at 2 h ([5]; Sprague Dawley, rat, brain/plasma, read-out: Mean Tissue/Plasma Conc. Ratio (brain to plasma ratio)): 0.096
concentration at 2 hr ([5]; rat, brain tissue homogenate, 10 mg/kg, individual animals (n = 3), read-out: Brain Tissue Homogenate Conc.): 319 ng/mL
concentration at 2 hr ([5]; rat, brain tissue homogenate, 10 mg/kg, mean, read-out: Brain Tissue Homogenate Conc., Mean): 349 ng/mL
concentration at 2 hr ([5]; rat, brain, 10 mg/kg, read-out: Brain Mean Tissue): 1400 ng/g
concentration at 2 hr ([5]; rat, plasma, 10 mg/kg, individual animals (n = 3), read-out: Plasma Conc.): 12200 ng/mL
concentration at 2 hr ([5]; rat, plasma, 10 mg/kg, mean, read-out: Plasma Conc., Mean): 14500 ng/mL
AUCinf [6, 8]: 318.204 µg·h/mL and 347.92 µg·h/mL
AUCinf/D [6, 8]: 25862 kg·h/kL and 31820 kg·h/kL and 34792 kg·h/kL
AUClast [6, 8]: 291.659 µg·h/mL and 320.41 µg·h/mL
Clast [6, 8]: 2390 ng/mL and 2740 ng/mL
Cmax [6, 8]: 18800 ng/mL
Cmax/D [6, 8]: 2460 kg/kL and 1880 kg/kL and 2510 kg/kL
F [6, 8]: 50.2% and 61.8% and 67.6%
MRTinf [6, 8]: 9.17 h and 9.18 h
t1/2 [6, 8]: 7.19 h and 6.73 h
AUCinf/D [6, 9]: 30825 kg·h/kL
Cmax/D [6, 9]: 2283 kg/kL
F [6, 9]: 59.9%
time to peak plasma concentration ([6]; Sprague-Dawley rats, following five daily PO doses of 10 mg/kg): ≤ 2 h
AUCinf [6, 10]: 308.776 µg·h/mL and 251.304 µg·h/mL
AUCinf/D [6, 10]: 25525 kg·h/kL and 30878 kg·h/kL and 25130 kg·h/kL
AUClast [6, 10]: 296.855 µg·h/mL and 240.643 µg·h/mL
Clast [6, 10]: 1120 ng/mL and 1560 ng/mL
Cmax [6, 10]: 19900 ng/mL and 21800 ng/mL
Cmax/D [6, 10]: 2510 kg/kL and 1990 kg/kL and 2180 kg/kL
F [6, 10]: 49.6% and 60.0% and 48.8%
MRTinf [6, 10]: 7.59 h and 7.51 h
AUCinf/D [6, 11]: 27178 kg·h/kL
Cmax/D [6, 11]: 2227 kg/kL
F [6, 11]: 52.8%
AUC(0-t) [6, 12]: 234 µg·h/mL
MRT inf [6, 12]: 9.79 h
Tmax [6, 12]: 2 h
AUC(0-inf) ([6]; male, Sprague-Dawley, rat, in vivo, po, 10 mg/kg, Sprague-Dawley rats, day five of daily PO 10 mg/kg, individual animals, read-out: AUCinf): 259 µg·h/mL
concentration at 24 h ([6]; male, Sprague-Dawley, rat, in vivo, po, 10 mg/kg, Sprague-Dawley rats, day five of daily PO 10 mg/kg, individual animals, read-out: Clast): 2880 ng/mL
Cmax ([6]; male, Sprague-Dawley, rat, in vivo, po, 10 mg/kg, Sprague-Dawley rats, day five of daily PO 10 mg/kg, individual animals, read-out: Cmax): 24600 ng/mL
half-life ([6]; male, Sprague-Dawley, rat, in vivo, po, 10 mg/kg, Sprague-Dawley rats, day five of daily PO 10 mg/kg, individual animals, read-out: t1/2 (converted)): 6.54 h
AUC(0-t) [6, 13]: 282 µg·h/mL
MRT inf [6, 13]: 9.38 h
Tmax [6, 13]: 1.67 h
AUC(0-inf) ([6]; male, Sprague-Dawley, rat, in vivo, po, 10 mg/kg, Sprague-Dawley rats, day five of daily PO 10 mg/kg, mean (n = 3), read-out: AUCinf): 308 µg·h/mL
concentration at 24 h ([6]; male, Sprague-Dawley, rat, in vivo, po, 10 mg/kg, Sprague-Dawley rats, day five of daily PO 10 mg/kg, mean (n = 3), read-out: Clast): 2670 ng/mL
Cmax ([6]; male, Sprague-Dawley, rat, in vivo, po, 10 mg/kg, Sprague-Dawley rats, day five of daily PO 10 mg/kg, mean (n = 3), read-out: Cmax): 22800 ng/mL
half-life ([6]; male, Sprague-Dawley, rat, in vivo, po, 10 mg/kg, Sprague-Dawley rats, day five of daily PO 10 mg/kg, mean (n = 3), read-out: t1/2 (converted)): 6.82 h
bioavailability ([6]; male, Sprague-Dawley, rat, in vivo, po, 10 mg/kg, Sprague-Dawley rats, following five daily PO doses of 10 mg/kg): 59.9%
concentration at 24 h ([6]; male, Sprague-Dawley, rat, in vivo, po, 10 mg/kg, Sprague-Dawley rats, following five daily PO doses of 10 mg/kg, at 24 hr, read-out: last measurable concentration): 2670 ng/mL
Cmax ([6]; male, Sprague-Dawley, rat, in vivo, po, 10 mg/kg, Sprague-Dawley rats, following five daily PO doses of 10 mg/kg, read-out: peak plasma concentration (Cmax)): 22800 ng/mL
half-life ([6]; male, Sprague-Dawley, rat, in vivo, po, 10 mg/kg, Sprague-Dawley rats, following five daily PO doses of 10 mg/kg, read-out: terminal half-life (converted)): 6.82 h
AUC(0-inf) ([6]; male, Sprague-Dawley, rat, in vivo, po, 10 mg/kg, Sprague-Dawley rats, following five daily PO doses of 10 mg/kg, read-out: total systemic exposure (AUCinf)): 308 µg·h/mL
AUC(0-t) [6, 14]: 247 µg·h/mL
MRT inf [6, 14]: 7.18 h
Tmax [6, 14]: 2 h
AUC(0-inf) ([6]; male, Sprague-Dawley, rat, in vivo, po, 10 mg/kg, male Sprague-Dawley rats, single PO 10 mg/kg dose, individual animals, read-out: AUCinf): 255 µg·h/mL
concentration at 24 h ([6]; male, Sprague-Dawley, rat, in vivo, po, 10 mg/kg, male Sprague-Dawley rats, single PO 10 mg/kg dose, individual animals, read-out: Clast): 1330 ng/mL
Cmax ([6]; male, Sprague-Dawley, rat, in vivo, po, 10 mg/kg, male Sprague-Dawley rats, single PO 10 mg/kg dose, individual animals, read-out: Cmax): 25100 ng/mL
half-life ([6]; male, Sprague-Dawley, rat, in vivo, po, 10 mg/kg, male Sprague-Dawley rats, single PO 10 mg/kg dose, individual animals, read-out: t1/2 (converted)): 5.38 h
AUC(0-t) [6, 15]: 262 µg·h/mL
Tmax [6, 15]: 1.67 h
AUC(0-inf) ([6]; male, Sprague-Dawley, rat, in vivo, po, 10 mg/kg, male Sprague-Dawley rats, single PO 10 mg/kg dose, mean (n = 3), read-out: AUCinf): 272 µg·h/mL
concentration at 24 h ([6]; male, Sprague-Dawley, rat, in vivo, po, 10 mg/kg, male Sprague-Dawley rats, single PO 10 mg/kg dose, mean (n = 3), read-out: Clast): 1340 ng/mL
Cmax ([6]; male, Sprague-Dawley, rat, in vivo, po, 10 mg/kg, male Sprague-Dawley rats, single PO 10 mg/kg dose, mean (n = 3), read-out: Cmax): 22300 ng/mL
half-life ([6]; male, Sprague-Dawley, rat, in vivo, po, 10 mg/kg, male Sprague-Dawley rats, single PO 10 mg/kg dose, mean (n = 3), read-out: t1/2 (converted)): 5.11 h
bioavailability ([6]; male, Sprague-Dawley, rat, in vivo, po, 10 mg/kg, male Sprague-Dawley rats, single PO 10 mg/kg): 52.8%
concentration at 24 h ([6]; male, Sprague-Dawley, rat, in vivo, po, 10 mg/kg, male Sprague-Dawley rats, single PO 10 mg/kg, at 24 hr, read-out: last measurable concentration): 1340 ng/mL
Cmax ([6]; male, Sprague-Dawley, rat, in vivo, po, 10 mg/kg, male Sprague-Dawley rats, single PO 10 mg/kg, read-out: peak plasma concentration (Cmax)): 22300 ng/mL
half-life ([6]; male, Sprague-Dawley, rat, in vivo, po, 10 mg/kg, male Sprague-Dawley rats, single PO 10 mg/kg, read-out: terminal half-life (t1/2) (converted)): 5.11 h
